Patent US20250064712A1, “METHOD FOR AMPLIFYING EXPRESSION OF EPIDERMAL BARRIER FUNCTION-RELATED GENE” (J-Network, Inc., priority 2023, published 2025)

Key:
[1] = tested on: LOR gene; assay: Test for amplification of mRNA expression of LOR gene (quantitative real-time PCR, GAPDH internal standard); format: cell-based, human; settings: NHEKs, GDM12 100 μM, culture time 30 hr, control = 1
Method: (§1) Normal human epidermal keratinocytes (NHEKs) were seeded on a 96-well plate at a cell density of 2.0×10^4cells/well using HuMedia-KG2 medium (manufactured by Kurabo Industries Ltd.), and cultured under the conditions of 37° C. and 5% CO2 for 24 hours.
(§2) Thereafter, a diacylglycerol PEG adduct was added thereto using HuMedia-KB2 medium (manufactured by Kurabo Industries Ltd.), and each was cultured under the conditions of 37° C. and 5% CO2 for a predetermined time. Table 1 represents the target gene, the types of diacylglycerol PEG adduct added, the adding amount, and the culture time. A control (no addition) was also cultured under the same conditions.
(§3) After the cells were cultured for each predetermined time, RNA was extracted from the cells of each sample and control. The extracted RNA was reverse-transcribed to prepare cDNA, and the mRNA of the target gene was quantified by quantitative real-time PCR expression analysis. GAPDH (glyceraldehyde 3-phosphate dehydrogenase) was used as an internal standard.
(§4) In the analysis, the mRNA expression level of each target gene was corrected with the value of the expression level of GAPDH, which is an internal standard in the same sample, and the correction value of the sample was calculated as a relative expression level when the correction value of the control was set to 1.

[2] = tested on: SULT2B1 gene; assay: Test for amplification of mRNA expression of SULT2B1 gene (quantitative real-time PCR, GAPDH internal standard); format: cell-based, human; settings: NHEKs, control = 1
Method: as §1, §2, §3, §4

[3] = tested on: IVL gene; assay: Test for amplification of mRNA expression of IVL gene (quantitative real-time PCR, GAPDH internal standard); format: cell-based, human; settings: NHEKs, GDM12 100 μM, culture time 30 hr, control = 1
Method: as §1, §2, §3, §4

[4] = tested on: CERS3 gene; assay: Test for amplification of mRNA expression of CERS3 gene (quantitative real-time PCR, GAPDH internal standard); format: cell-based, human; settings: NHEKs, GDS23 50 μM, culture time 36 hr, control = 1
Method: as §1, §2, §3, §4

[5] = tested on: loricrin; assay: Test for detecting production of loricrin, loricrin immunostaining method; format: cell-based, human; settings: LabCyte EPI-MODEL24 6D, 50 μL of 2% GDS23 solution applied for 24 hours, collected 9 days after application, vs purified water control
Method: A test for detecting the production of loricrin encoded by the LOR genes was performed using two staining methods: an immunostaining method using an anti-loricrin antibody and a hematoxylin-eosin staining method.
Treatment of epidermal model Three-dimensional cultured human epidermal model (LabCyte EPI-MODEL24 6D: manufactured by Japan Tissue Engineering Co., Ltd.) was cultured in a medium (assay medium: manufactured by Japan Tissue Engineering Co., Ltd.) at 37° C. for 24 hours. […]
After the blocking agent was aspirated, an anti-loricrin antibody (manufactured by Proteintech Japan) (diluted 50 times with a 3% BSA/PBS solution) was added to the section, and the primary antibody reaction was carried out overnight at 4° C. Thereafter, a Goat Anti-Rabbit IgG H&L (Alexa Fluor (registered trademark) 488 antibody (manufactured by Abcam PLC) (diluted 250 times with a 3% BSA/PBS solution) was added thereto, and the secondary antibody reaction was carried out for 1 hour at room temperature in a dark place. And then, nuclear staining was performed with DAPI diluted 200 times with a 3% BSA/PBS solution. A fluorescence microscope (BZ-X810, KEYENCE) was then used to observe the green and blue fluorescence. The green fluorescence indicates the presence of loricrin. The blue fluorescence stains the nuclei of the epidermal model to confirm that the cells are normal.

[6] = tested on: PPARA gene; assay: Test for amplification of mRNA expression of PPARA gene (quantitative real-time PCR, GAPDH internal standard); format: cell-based, human; settings: NHEKs, GDS23 50 μM, culture time 24, 30, 36 hr, control = 1
Method: as §1, §2, §3, §4

[7] = tested on: Three-dimensional cultured human epidermal model; assay: Hematoxylin-eosin staining and DAPI nuclear staining of epidermal model (cell abnormality check); format: cell-based; settings: LabCyte EPI-MODEL24 6D, 50 μL of 2% GDS23 solution applied for 24 hours, collected 9 days after application
Method: Treatment of epidermal model Three-dimensional cultured human epidermal model (LabCyte EPI-MODEL24 6D: manufactured by Japan Tissue Engineering Co., Ltd.) was cultured in a medium (assay medium: manufactured by Japan Tissue Engineering Co., Ltd.) at 37° C. for 24 hours.
Thereafter, the medium was exchanged, and 50 μL of a sample prepared with purified water (2% preparation solution of GDS23) was applied to the surfaces of the stratum corneum, followed by continuous culture for 24 hours. The control for comparison was applied with purified water only.
Subsequently, the sample on the surface of the stratum corneum of the epidermal model was sucked up with a sterilized cotton swab to remove the excess sample, and then the epidermal model was continuously cultured without newly applying the sample on the surface of the stratum corneum, and the epidermal model was collected 9 days after the sample was applied.
After the blocking agent was aspirated, an anti-loricrin antibody (manufactured by Proteintech Japan) (diluted 50 times with a 3% BSA/PBS solution) was added to the section, and the primary antibody reaction was carried out overnight at 4° C. […]

| Substance | relative expression level of LOR genes [1] | relative expression level of SULT2B1 genes ([2]; GDM12 100 μM, culture time 30 hr) | relative expression level of IVL genes [3] | relative expression level of CERS3 genes [4] | production amount of loricrin in the stratum corneum (green fluorescence) [5] | relative expression level of PPARA genes [6] | abnormality in the cells of the epidermal model (blue fluorescence, hematoxylin-eosin staining) [7] | relative expression level of SULT2B1 genes ([2]; GDS23 50 μM, culture time 24 hr) |
| --- | --- | --- | --- | --- | --- | --- | --- | --- |
| PEG-12 glycerol dimyristate [GDM12] | about 1.3 times that of the control | about 1.6 times that of the control | about 1.5 times that of the control |  |  |  |  |  |
| PEG-23 glycerol distearate [GDS23] |  |  |  | about 2 times that of the control | higher than that of the control epidermal model | about 2.2 times that of the control | no abnormality in the cells of the epidermal model | about 1.2 times that of the control |
